Activity calls are given as the source filed them. The calls are words filed in the database; no cut-off is given here.

Eight molecules from ChEMBL document CHEMBL4732144, “Discovery of a true bivalent dopamine D receptor agonist” (Eur J Med Chem, 2021) can be followed below.

The target of assay [1] is T1, D(2) dopamine receptor (Homo sapiens, UniProt P14416). Kind of assay: Displacement of [3H]raclopride from human D2R isoform 2 stably expressed in HEK293 cell membranes measured after 1 hr by liquid scintillation counting method. Details: species or system Membrane.
Assay [2] addresses T1, D(2) dopamine receptor. Nature of the assay: Displacement of [3H]raclopride from human D2R isoform 2 stably expressed in HEK293 cell membranes at 1 uM measured after 1 hr by liquid scintillation counting method. The conditions noted are these: Membrane, filed as agonist.
For assay [3], the target named is T1, D(2) dopamine receptor. Kind of assay: Displacement of [3H]raclopride from human D2R isoform 2 stably expressed in HEK293 cell membranes measured after 1 hr by liquid scintillation counting method relative to IndBipAlk Ki. The following applies: Membrane.
The target in assay [4] is T1, D(2) dopamine receptor. Kind of assay: Agonist activity at human D2R isoform 2 stably expressed in HEK293 cells assessed as inhibition of forskolin-induced increase of cAMP accumulation preincubated for 10 mins followed by forskolin addition by Glosensor cAMP reagent based luminescence assay relative to IndBipAlk EC50. It counts as functional, cell-based.
The target of assay [5] is T1, D(2) dopamine receptor. Kind of assay: Agonist activity at human D2R isoform 2 stably expressed in HEK293 cells assessed as inhibition of forskolin-induced increase of cAMP accumulation preincubated for 10 mins followed by forskolin addition by Glosensor cAMP reagent based luminescence assay. It counts as functional, cell-based.
Assay [6] concerns the target T1, D(2) dopamine receptor. Nature of the assay: Displacement of [3H]raclopride from human D2R isoform 2 stably expressed in HEK293 cell membranes measured after 1 hr by liquid scintillation counting method relative to IndAlk Ki. The following applies: Membrane.
Assay [7] deals with T1, D(2) dopamine receptor. Kind of assay: Agonist activity at human D2R isoform 2 stably expressed in HEK293 cells assessed as inhibition of forskolin-induced increase of cAMP accumulation preincubated for 10 mins followed by forskolin addition by Glosensor cAMP reagent based luminescence assay relative to IndAlk EC50. The class given is functional, cell-based.

T1 sequence (P14416 whole entry, canonical isoform): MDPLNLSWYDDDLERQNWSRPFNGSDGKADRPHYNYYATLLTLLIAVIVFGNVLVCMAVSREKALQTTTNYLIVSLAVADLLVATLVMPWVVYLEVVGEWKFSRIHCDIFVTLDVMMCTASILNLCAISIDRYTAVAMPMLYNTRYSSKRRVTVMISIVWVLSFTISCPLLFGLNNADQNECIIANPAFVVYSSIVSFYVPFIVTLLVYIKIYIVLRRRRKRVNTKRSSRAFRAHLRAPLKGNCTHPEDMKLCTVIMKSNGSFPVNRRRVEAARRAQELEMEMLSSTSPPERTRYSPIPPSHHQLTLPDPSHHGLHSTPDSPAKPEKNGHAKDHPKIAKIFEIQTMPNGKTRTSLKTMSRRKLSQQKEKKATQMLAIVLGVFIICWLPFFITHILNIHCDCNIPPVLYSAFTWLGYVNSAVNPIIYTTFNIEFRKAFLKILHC

`CCCN(CCCCNC(=O)c1ccc(-c2ccc(OCc3cn(CCOCCOCCOCCOCCOCCn4cc(COc5ccc(-c6ccc(C(=O)NCCCCN(CCC)C7Cc8ccccc8C7)cc6)cc5)nn4)nn3)cc2)cc1)C1Cc2ccccc2C1` gave a Ki in assay [1] of 59 nM. The molecule further displayed an inhibition in assay [2] greater than 80%. For the same molecule, the Ratio Ki in assay [3] turned out to be 16.4. In assay [4], the Ratio EC50 is 4.9. Besides, the EC50 in assay [5] was 65 nM.

In assay [1], `C#CCCCCN(CCC)C1Cc2ccccc2C1` registered an inhibitory constant (Ki) of 189 nM. The EC50 in assay [5] came to 3.4 nM.

As for `CCCN(CCCCc1cn(CCOCCOCCOCCOCCn2cc(CCCCN(CCC)C3Cc4ccccc4C3)nn2)nn1)C1Cc2ccccc2C1`, the Ki in assay [1] was determined as 66 nM. Moreover, the inhibition entry in assay [2] was “Active”. In assay [6], the Ratio Ki was 2.9. In assay [7], the Ratio EC50 came out at 0.4. Further, the half-maximal effective concentration (EC50) in assay [5] was determined as 9.4 nM.

On to `CCCN(CCCCc1cn(CCOCCOCCOCCn2cc(CCCCN(CCC)C3Cc4ccccc4C3)nn2)nn1)C1Cc2ccccc2C1`, for which the Ki in assay [1] is 73 nM. Besides, in assay [2], the inhibition result is “Active”. In assay [6], the Ratio Ki was 2.6. For the same molecule, in assay [7], the Ratio EC50 was determined as 0.5. Also, the EC50 in assay [5] was determined as 7.2 nM.

Molecule `C#CCOc1ccc(-c2ccc(C(=O)NCCCCN(CCC)C3Cc4ccccc4C3)cc2)cc1` registered a Ki in assay [1] of 970 nM. In addition, the EC50 in assay [5] was 321 nM.

The molecule `CCCN(CCCCNC(=O)c1ccc(-c2ccc(OCc3cn(CCOCCOCCOCCn4cc(COc5ccc(-c6ccc(C(=O)NCCCCN(CCC)C7Cc8ccccc8C7)cc6)cc5)nn4)nn3)cc2)cc1)C1Cc2ccccc2C1` yielded a Ki in assay [1] of 270 nM. Also, the inhibition result in assay [2] is “Active”. Also, the Ratio Ki in assay [3] is 3.6. Moreover, the Ratio EC50 in assay [4] stood at 1.1. Also, the EC50 in assay [5] was found to be 292 nM.

In assay [1], `CCCN(CCCCNC(=O)c1ccc(-c2ccc(OCc3cn(CCOCCOCCOCCOCCn4cc(COc5ccc(-c6ccc(C(=O)NCCCCN(CCC)C7Cc8ccccc8C7)cc6)cc5)nn4)nn3)cc2)cc1)C1Cc2ccccc2C1` gave a Ki of 250 nM. The inhibition entry in assay [2] is “Active”. The Ratio Ki in assay [3] stood at 3.9. Besides, in assay [4], the Ratio EC50 worked out at 0.6. Further, the concentration giving a half-maximal response (EC50) in assay [5] is 542 nM.

In turn, `CCCN(CCCCc1cn(CCOCCOCCOCCOCCOCCn2cc(CCCCN(CCC)C3Cc4ccccc4C3)nn2)nn1)C1Cc2ccccc2C1` gave a Ki in assay [1] of 48 nM. Moreover, in assay [2], the inhibition entry was “Active”. Moreover, the Ratio Ki in assay [6] came to 3.9. Also, the Ratio EC50 in assay [7] amounted to 1.1. In assay [5], the EC50 was determined as 3.2 nM.
